Results from PubChem BioAssay AID844 (SRMLSC, 2007).
Active and inactive are the calls of the source. No rule for the calls is given here.

Tested on: MRP1 cells, doxorubicin viability shift, 10 uM compound
Assay: doxorubicin EC50 increase in MRP-1 cells, dose response, cell-based, doxorubicin EC50 shift (AID 844)
Conditions: for EC50: measured here: doxorubicin EC50 with compound

Q: For `O=C(COc1cccnc1[N+](=O)[O-])Nc1ccc2c(c1)OC(F)(F)O2`, which fold increase in Dox EC50 is on record?
A: 0.7 (inactive)

Q: And the EC50?
A: 3.8 µM

Q: With `O=C1CCCC(O)=C1N=Nc1ccc2c(c1)OCO2` as the compound, how does the fold increase in Dox EC50 read?
A: 1.17 (inactive)

Q: What about the EC50 of the same compound?
A: 6.29 µM

Q: Which fold increase in Dox EC50 does the source give for `Cc1ccc(C(=O)CCC(=O)Nc2ccc(Cl)c(S(=O)(=O)Nc3cccc(Cl)c3)c2)cc1` here?
A: 1.15 (inactive)

Q: And the EC50?
A: 6.21 µM

Q: With `COc1ccc(-c2cc3nc(C)cc(N4CC(C)CC(C)C4)n3n2)cc1` (stereo not given) as the compound, how does the fold increase in Dox EC50 read?
A: 0.64 (inactive)

Q: And the EC50?
A: 3.45 µM

Q: Which results are given for `O=C1c2cccc3cccc(c23)C(=O)N1CCN1CCN(CC(O)COc2ccccc2)CC1` (stereo not given)?
A: fold increase in Dox EC50: 0.32 (inactive); EC50: 1.71 µM

Q: How did the fold increase in Dox EC50 turn out when `CCC(Sc1nc(-c2ccccc2)c(C#N)c(=O)[nH]1)C(=O)Nc1cc(C)on1` (stereo not given) was run?
A: 1.56

Q: What about the EC50 of the same compound?
A: 8.41 µM

Q: For `Cc1cc(/C=C2\NC(=O)N(Cc3ccc(Cl)cc3)C2=O)c(C)n1C`, which fold increase in Dox EC50 is on record?
A: 1.1 (inactive)

Q: What about the EC50 of the same compound?
A: 5.93 µM

Q: For `CC(=O)Nc1ccc2[nH]c(C)c(CC=C(Cl)Cl)c(=O)c2c1`, which fold increase in Dox EC50 is on record?
A: 0.72 (inactive)

Q: And the EC50?
A: 3.87 µM

Q: `CCCCNc1oc(-c2ccc(OC)cc2)nc1S(=O)(=O)c1ccccc1` was tested. Which fold increase in Dox EC50 did it give?
A: 0.72 (inactive)

Q: What about the EC50 of the same compound?
A: 3.87 µM

Q: Which results are given for `O=C(NCc1ccccc1)C(c1ccc(O)cc1)N(C(=O)Cn1nnc(-c2cccs2)n1)c1ccc2c(c1)OCCO2` (stereo not given)?
A: fold increase in Dox EC50: 0.86 (inactive); EC50: 4.66 µM

Q: Which results are given for `O=C(c1ccccc1)C(Sc1ncn[nH]1)c1ccccc1` (stereo not given)?
A: fold increase in Dox EC50: 0.68 (inactive); EC50: 3.7 µM

Q: `O=C1CC(N2CCC(O)(c3ccc(Br)cc3)CC2)C(=O)N1c1ccc(Cl)cc1` (stereo not given) was tested. Which fold increase in Dox EC50 did it give?
A: 1.37 (inactive)

Q: And the EC50?
A: 7.39 µM

Q: What does the source list for `CC(C)OC(=O)CSc1nnc2n1C(C)(C)Cc1ccccc1-2`?
A: fold increase in Dox EC50: 0.82 (inactive); EC50: 4.42 µM

Q: How did the fold increase in Dox EC50 turn out when `O=C(Nc1nc(COc2ccccc2)cs1)c1ccccc1F` was run?
A: 1.76

Q: What about the EC50 of the same compound?
A: 9.49 µM

Q: With `CC(=O)N1CCN=C1SCc1ccccc1F` as the compound, how does the fold increase in Dox EC50 read?
A: 0.78 (inactive)

Q: And the EC50?
A: 4.2 µM

Q: What does the source list for `Cc1ccc(C)c2sc(NC(=O)c3ccc(N4CCCCC4)c([N+](=O)[O-])c3)nc12`?
A: fold increase in Dox EC50: 1.05 (inactive); EC50: 5.66 µM

Q: For `O=C(Nc1ccc(O)cc1)C1CCCO1` (stereo not given), which fold increase in Dox EC50 is on record?
A: 0.91 (inactive)

Q: What about the EC50 of the same compound?
A: 4.92 µM

Q: How did the fold increase in Dox EC50 turn out when `CCOc1ccc(C2CC(c3ccc(CC)cc3)Nc3nc(N)nn32)cc1` (stereo not given) was run?
A: 1.24 (inactive)

Q: And the EC50?
A: 6.69 µM

Q: Which fold increase in Dox EC50 does the source give for `O=C(O)c1cccc(N2C(=O)C3CC=C(Cl)CC3C2=O)c1` (stereo not given) here?
A: 1.48 (inactive)

Q: And the EC50?
A: 7.97 µM

Q: With `COc1ccc(-n2ncc3c(=O)n(CC(=O)N4c5ccccc5CC4C)cnc32)cc1` (stereo not given) as the compound, how does the fold increase in Dox EC50 read?
A: 0.82 (inactive)

Q: What about the EC50 of the same compound?
A: 4.44 µM

Q: Which results are given for `C/C(=N/NC(=O)CSc1ccccn1)c1ccc([N+](=O)[O-])cc1`?
A: fold increase in Dox EC50: 0.77 (inactive); EC50: 4.18 µM

Q: Which results are given for `CCc1noc(C)c1C(=O)Nc1nc(-c2cc(C)ccc2C)c(C)s1`?
A: fold increase in Dox EC50: 0.83 (inactive); EC50: 4.48 µM

Q: `CNC(=S)Nc1ccc(C23CC4CC(CC(C4)C2)C3)cc1` was tested. Which fold increase in Dox EC50 did it give?
A: 0.7 (inactive)

Q: What about the EC50 of the same compound?
A: 3.78 µM

Q: With `COc1ccc(-c2nnc(SC(C)C(=O)Nc3cccc(Cl)c3)o2)cc1` (stereo not given) as the compound, how does the fold increase in Dox EC50 read?
A: 0.74 (inactive)

Q: What about the EC50 of the same compound?
A: 4 µM

Q: With `CCOC(=O)c1ccc(Oc2nc(NC(C)(C)C)nc(N(C)C)n2)cc1` as the compound, how does the fold increase in Dox EC50 read?
A: 0.82 (inactive)

Q: What about the EC50 of the same compound?
A: 4.43 µM

Q: What does the source list for `CCOC(=O)C1CCCN(Cc2ccc(OC)cc2OC)C1` (stereo not given)?
A: fold increase in Dox EC50: 0.35 (inactive); EC50: 1.91 µM

Q: For `CCOc1ccc(-c2nc(C#N)c(NCC(C)C)o2)cc1`, which fold increase in Dox EC50 is on record?
A: 1.19 (inactive)

Q: And the EC50?
A: 6.4 µM

Q: With `O=C1CSC(=S)N1N=C1CCCCCC1` as the compound, how does the fold increase in Dox EC50 read?
A: 0.92 (inactive)

Q: What about the EC50 of the same compound?
A: 4.99 µM

Q: Which results are given for `COc1cc(/C=N/NC(=O)C23CC4CC(CC(C4)C2)C3)cc(Br)c1O`?
A: fold increase in Dox EC50: 0.66 (inactive); EC50: 3.54 µM

Q: How did the fold increase in Dox EC50 turn out when `CC(C)CCC1CC(CSC(=N)N)OC1=O` (stereo not given) was run?
A: 0.68 (inactive)

Q: And the EC50?
A: 3.68 µM
